Measured values published in US7349080B2, “Label-independent detection of unpurified analytes” (Corning Incorporated, priority 2004, dated 2008).

Experiment: Label-independent detection (LID) of binding to immobilized biotin on a grating-coupled waveguide microplate
Text: A label-independent detection (LID) system developed by Corning Inc. was used to evaluate interactions between unlabeled streptavidin and immobilized biotin. This LID system is comprised of a multi-well optical reader and a disposable microplate (e.g., a 96- or 384-well microplate). Each well of the microplate contains a grating-coupled waveguide for evanescent field sensing. The sensing surface has a surface chemistry layer allowing for attachment of molecules that contain primary amine groups (e.g., biotin-amine). As streptavidin or other analytes of interest bind to the sensing surface, the refractive index at the surface is changed. An optical mode propagates and senses the refractive index changes close to the sensing surface. Only light that is “resonant” is strongly reflected, and the exact wavelength of the resonance is a sensitive function of the refractive index at the surface of the sensor. In a typical operation, a baseline read of the microplate is first established. Addition of a binding partner results in a change in refractive index at the sensing surface, which is indicated as picometer (pm) shift from baseline. Each microplate is read on the optical reader before, during, and after the addition of the binding partner. Resonant wavelength shift (“Response (pm)”) is plotted as a function of time. Cell lysate was prepared by diluting a 2 mg/ml stock to 100 μg/ml final concentration. A Corning 96-well clear polystyrene non-treated flat bottom plate (Corning catalog # 3370) was used for source plate preparation. To facilitate efficient pickup of the sample solutions by a multi-channel robotic pipettor in the LID instrument, each well of the source plate contained extra solution. A solution of 1× phosphate buffered saline (PBS; 1 mM KH2PO4, 10 mM Na2HPO4, 137 mM NaCl, and 2.7 mM KCl) was used as a first addition step for baseline measure. […] Interactions between purified streptavidin and immobilized biotin were first evaluated (FIG. 2). […] PBS was added to establish a baseline read (before point A). […]

Compound | binding to the target area (ethanolamine in borate buffer, between points B and C, corrected response curve, FIG. 3) | effect of post wash on binding of streptavidin to biotin (PBS wash after point C, corrected response curve, FIG. 3) | bulk index shift (Response (pm)) due to binding to the immobilized biotin (purified streptavidin 200 nM in 1x PBS, between points A and B, FIG. 2)
NCCO [Ethanolamine, ethanolamine] | did not appear to bind to the target area | – | –
streptavidin | – | did not disrupt the binding | increase in the bulk index
